US20060270880A1, “7-Azaindole derivatives as cox2 inhibitors” (priority 2003, published 2006)

molecular target: T1, microsomal h-COX2 (Homo sapiens, UniProt P35354); experiment: Microsomal assay: inhibition of microsomal h-COX2 (PGE2 by EIA); assay type: biochemical; details: microsomal preparation from baculovirus infected SF9 cells; 1 hour preincubation; 0.1 μM arachidonic acid, 10 minutes; read-out: IC50 values for inhibition of COX-2
T1 construct: made in house; host or cells: baculovirus infected SF9 cells (microsomal preparation)
T1 sequence (P35354 18-604): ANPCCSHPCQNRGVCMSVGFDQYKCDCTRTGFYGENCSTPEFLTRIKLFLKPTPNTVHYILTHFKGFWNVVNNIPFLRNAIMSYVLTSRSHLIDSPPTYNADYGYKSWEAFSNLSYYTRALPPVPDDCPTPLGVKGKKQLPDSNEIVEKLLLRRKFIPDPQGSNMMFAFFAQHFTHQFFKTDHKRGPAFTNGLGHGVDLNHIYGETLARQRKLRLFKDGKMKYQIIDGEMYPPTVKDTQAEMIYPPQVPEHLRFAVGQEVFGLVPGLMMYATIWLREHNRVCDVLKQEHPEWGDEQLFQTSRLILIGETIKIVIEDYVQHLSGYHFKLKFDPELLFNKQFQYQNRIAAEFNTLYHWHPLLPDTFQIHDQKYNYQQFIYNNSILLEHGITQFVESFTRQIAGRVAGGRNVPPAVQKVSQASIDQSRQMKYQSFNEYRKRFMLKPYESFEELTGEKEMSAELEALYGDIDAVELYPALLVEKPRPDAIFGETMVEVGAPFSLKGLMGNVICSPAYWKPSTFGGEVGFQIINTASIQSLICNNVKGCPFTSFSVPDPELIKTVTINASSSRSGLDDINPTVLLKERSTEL
Protocol: Inhibitory activity against microsomal h-COX2 was assessed against a microsomal preparation from baculovirus infected SF9 cells. An aliquot of microsomal preparation was thawed slowly on ice and a 1/40,000 dilution prepared from it into the assay buffer (sterile water, degassed with argon containing 100 mM HEPES (pH 7.4), 10 mM EDTA (pH7.4), 1 mM phenol, 1 mM reduced glutathione, 20 mg/ml gelatin and 0.001 mM Hematin). Once diluted the enzyme solution was then sonicated for 5 seconds (Branson sonicator, setting 4, 1 cm tip) to ensure a homogeneous suspension. 155 μl enzyme solution was then added to each well of a 96-well microtitre plate containing either 5 μl test und (40× required test concentration) or 5 μl DMSO for controls. Plates were then mixed and incubated at room temperature for 1 hour. Following the incubation period, 40 μl of 0.5 μM arachidonic acid was added to each well to give a final concentration of 0.1 μM. Plates were then mixed and incubated for exactly 10 minutes (room temperature) prior to addition of 25 μl 1M HCl (hydrochloric acid) to each well to stop the reaction. 25 μl of 1M NaOH (sodium hydroxide) was then added to each well to neutralise the solution prior to determination of PGE2 levels by enzyme immunoassay (EIA).

SMILES | IC50
CS(=O)(=O)c1ccc(-c2ccc3ccn(CC4CCCCC4)c3n2)cc1 [Example 1, 1-(cyclohexanemethyl)-6-[4-(methylsulfonyl)phenyl]-7-azaindole] | ≤ 500 nM
CS(=O)(=O)c1ccc(-c2ccc3ccn(-c4ccccc4)c3n2)cc1 [Example 2, 1-Phenyl-6-[4-(methylsulfonyl)phenyl]-7-azaindole] | ≤ 500 nM
CS(=O)(=O)c1ccc(-c2ccc3c(C=O)cn(CC4CCCCC4)c3n2)cc1 [Example 4, 1-(cyclohexanemethyl)-6-[4-(methylsulfonyl)phenyl]-7-azaindole-3-carboxaldehyde] | ≤ 500 nM
Cc1cn(CC2CCCCC2)c2nc(-c3ccc(S(C)(=O)=O)cc3)ccc12 [Example 6, 1-{cyclohexanemethyl)-3-methyl-6-[4-(methylsulfonyl)phenyl]-7-azaindole] | ≤ 500 nM
CCC(CC)Cn1ccc2ccc(-c3ccc(S(C)(=O)=O)cc3)nc21 [Example 10] | ≤ 500 nM
CS(=O)(=O)c1ccc(-c2ccc3ccn(Cc4ccccc4)c3n2)cc1 [Example 12] | ≤ 500 nM
CS(=O)(=O)c1ccc(-c2ccc3ccn(-c4ccc(F)cc4)c3n2)cc1 [Example 13] | ≤ 500 nM
CS(=O)(=O)c1ccc(-c2ccc3ccn(Cc4cccnc4)c3n2)cc1 [Example 14] | ≤ 500 nM

Second part, the compound after the results:

IC50 | SMILES
≤ 500 nM | CC(C)Cc1cn(CC2CCCCC2)c2nc(-c3ccc(S(C)(=O)=O)cc3)ccc12 [Example 3, 1-(cyclohexanemethyl)-3-(2-methylprop-1-yl)-6-[4-(methylsulfonyl)phenyl]-7-azaindole]
≤ 500 nM | CS(=O)(=O)c1ccc(-c2ccc3ccn(S(=O)(=O)c4ccccc4)c3n2)cc1 [Example 9]
≤ 500 nM | CS(=O)(=O)c1ccc(-c2ccc3ccn(Cc4ccncc4)c3n2)cc1 [Example 15]
≤ 500 nM | CS(=O)(=O)c1ccc(-c2ccc3ccn(Cc4ccccn4)c3n2)cc1 [Example 16]
≤ 500 nM | CS(=O)(=O)c1ccc(-c2ccc3ccn(Cc4ccc(Cl)cc4)c3n2)cc1 [Example 18]
